Literature values in patent publication US4775679A, “Certain heterocyclic-ethyl-2,3-dihydrobenzofurans useful as anti-inflammatory agents” (Merck & Co., Inc., priority 1987, dated 1988).

System: inflammatory responses elicited by topically applied phorbol myristate acetate (PMA) or archidonic acid (AA)

| Compound | active in this assay (topical mouse ear), previously established |
| --- | --- |
| COc1ccc2c(c1)c(CC(=O)O)c(C)n2C(=O)c1ccc(Cl)cc1 [Indomethacin] | active |
| C[C@@H]1C[C@H]2[C@@H]3CCC4=CC(=O)C=C[C@]4(C)[C@@]3(F)[C@@H](O)C[C@]2(C)[C@@]1(O)C(=O)CO [dexamethasone] | active |
